Data: patent US20230277427A1, “COOLING SENSATION COMPOSITIONS” (GIVAUDAN SA, priority 2020, published 2023)

What was measured:
[1] = Stability of the solutions over time at different temperature (Example B); type: physicochemical
Protocol: The compound of Formula 1 was 2-methyl-1-(2-(5-(p-tolyl)-1H-imidazol-2-yl)piperidin-1-yl)butan-1-one (hereinafter “the compound”). The testing procedure with a number of different solvents was as follows: • 1. To 0.4 g compound was added 1.6 g solvent. This corresponds to a 20% solution. • 2. This mixture was warmed to 50° C. and agitated for 1 hour. • 3. If the compound dissolved, the solution was allowed to cool to room temperature, and then if it remained clear, it was stored overnight at 4° C. • 4. If crystals had developed, a further 2 g solvent was added (this now corresponding to a 10% solution) and step 2 were performed. • 5. The observations and actions of step 3 were performed. • 6. If the 10% combination of step 4 was not a solution, a further 4 g solvent was added (this now corresponding to a 5% solution), and step 2 were performed. • 7. The observations and actions of step 3 were performed. If crystals had developed, any such solvent was considered unsuitable Any solvent in which the compound was not crystallising at a 20 weight % solution, the testing procedure was repeated with a higher concentration as follows: • 1. To 1 g compound was added 1 g solvent. This corresponds to a 50% solution. • 2. This mixture was warmed to 50° C. and agitated for 1 hour. • 3. If the compound dissolved, the solution was allowed to cool to room temperature, and then if it remained clear, it was stored overnight at 4° C. • 4. If crystals had developed, a further 0.5 g solvent was added (this now corresponding to a 40% solution) and step 2 were performed. • 5. The observations and actions of step 3 were performed. • 6. If the 40% combination of step 4 was not a solution, a further 0.83 g solvent was added (this now corresponding to a 30% solution), and step 2 were performed. • 7. The observations and actions of step 3 were performed.

[2] = Solubility of compounds of formula (I) in different solvents (Example A); type: physicochemical; conditions: for in the fridge (precipitation): about 4° C. over night; for solubility @ RT: weight % of compound
Protocol: Into a 20 ml vial 0.4 g of 2-methyl-1-(2-(5-(p-tolyl)-1H-imidazol-2-yl)piperidin-1-yl)butan-1-one (white solid) have been added followed by the addition of 1.6 g of the respective solvent as indicated in Table 1 below. The vial was warmed to about 50° C. with gentle agitation for 1 hour. If 2-methyl-1-(2-(5-(p-tolyl)-1H-imidazol-2-yl)piperidin-1-yl)butan-1-one hasn't dissolved, 2 g of the respective solvent was added (resulting in a composition comprising 10 weight % of a compound of formula (I)), and again gentle agitated for an additional hour at about 50° C. If 2-methyl-1-(2-(5-(p-tolyl)-1H-imidazol-2-yl)piperidin-1-yl)butan-1-one still hasn't dissolved, 4 g of the respective solvent was added (resulting in a composition comprising 5 weight % of a compound of formula (I)), and again gentle agitated for an additional hour at about 50° C.
If 2-methyl-1-(2-(5-(p-tolyl)-1H-imidazol-2-yl)piperidin-1-yl)butan-1-one has dissolved, the vial was removed from the heat and was allowed to cool to room temperature. If no precipitation was observed the vials haven been placed in the fridge (about 4° C.) over night.
If 2-methyl-1-(2-(5-(p-tolyl)-1H-imidazol-2-yl)piperidin-1-yl)butan-1-one still has not dissolved, the procedure above has been repeated, starting with 0.05 g of 2-methyl-1-(2-(5-(p-tolyl)-1H-imidazol-2-yl)piperidin-1-yl)butan-1-one and 0.95 g of the respective solvent as indicated in Table 1 below. If still not dissolved, 1 g of the respective solvent was added (resulting in a composition comprising 2.5 weight % of a compound of formula (I))). If still not dissolved further solvent was added.

CCC(C)C(=O)N1CCCCC1c1ncc(-c2ccc(C)cc2)[nH]1 (stereo not shown) [2-methyl-1-(2-(5-(p-tolyl)-1H-imidazol-2-yl)piperidin-1-yl)butan-1-one]
stability of a solution, weight % of compound, @ 4° C. Overnight ([1]; solvent Butyl lactate): 20% weight % | stability of a solution, weight % of compound, @ 4° C. Overnight ([1]; solvent Ethanol abs.): 30% weight % | stability of a solution, weight % of compound, @ 4° C. Overnight ([1]; solvent Ethyl lactate): 10% weight % | stability of a solution, weight % of compound, @ 4° C. Overnight ([1]; solvent Isopropyl alcohol): 10% weight % | stability of a solution, weight % of compound, @ 4° C. Overnight ([1]; solvent Isopropylidene glycerol): 10% weight % | stability of a solution, weight % of compound, @ 4° C. Overnight ([1]; solvent L-Lactic acid, purity 86.7 weight %): 50% weight % | stability of a solution, weight % of compound, @ 4° C. Overnight ([1]; solvent dl-Lactic acid, purity 88 weight %): 50% weight % | in the fridge (precipitation) ([2]; solvent Butyl lactate, 10% solution): no crystals observed | solubility @ RT ([2]; solvent Butyl lactate, dissolved at about 50° C., cooled to room temperature): 10% | in the fridge (precipitation) ([2]; solvent Ethanol abs., 20% solution): no crystals observed | solubility @ RT ([2]; solvent Ethanol abs., dissolved at about 50° C., cooled to room temperature): 20% | in the fridge (precipitation) ([2]; solvent Ethyl lactate, 10% solution): no crystals observed | solubility @ RT ([2]; solvent Ethyl lactate, dissolved at about 50° C., cooled to room temperature): 10% | in the fridge (precipitation) ([2]; solvent Isopropyl alcohol, 10% solution): no crystals observed | solubility @ RT ([2]; solvent Isopropyl alcohol, dissolved at about 50° C., cooled to room temperature): 10% | in the fridge (precipitation) ([2]; solvent Isopropylidene glycerol, 10% solution): no crystals observed | solubility @ RT ([2]; solvent Isopropylidene glycerol, dissolved at about 50° C., cooled to room temperature): 10% | in the fridge (precipitation) ([2]; solvent L-Lactic acid, purity 86.7 weight %, 20% solution): no crystals observed | solubility @ RT ([2]; solvent L-Lactic acid, purity 86.7 weight %, dissolved at about 50° C., cooled to room temperature): 20% | in the fridge (precipitation) ([2]; solvent Propylene glycol, 2.5% solution): no crystals observed | solubility @ RT ([2]; solvent Propylene glycol, dissolved at about 50° C., cooled to room temperature): 2.5% | in the fridge (precipitation) ([2]; solvent Triacetin, 1% solution): no crystals observed | solubility @ RT ([2]; solvent Triacetin, dissolved at about 50° C., cooled to room temperature): 1% | in the fridge (precipitation) ([2]; solvent Triethyl citrate, 2.5% solution): no crystals observed | solubility @ RT ([2]; solvent Triethyl citrate, dissolved at about 50° C., cooled to room temperature): 2.5% | solubility @ RT ([2]; solvent Water dest.): <1% (not soluble) | in the fridge (precipitation) ([2]; solvent dl-Lactic acid, purity 88 weight %, 20% solution): no crystals observed | solubility @ RT ([2]; solvent dl-Lactic acid, purity 88 weight %, dissolved at about 50° C., cooled to room temperature): 20%
